Here are results for 23 molecules from ChEMBL document CHEMBL3862001, “Tetrahydropyrazolo[4,3-c]pyridine derivatives as potent and peripherally selective cannabinoid-1 (CB1) receptor inverse agonists” (Bioorg Med Chem Lett, 2016).

A word on the pEC50: it is the EC50 on a negative log10 scale, so that one unit is a factor of ten.

The nature of data set [1]: Drug uptake in C57BL/6J mouse brain at 20 mg/kg, po measured at 2 hrs. As to conditions: for concentration at 2 h: C57BL/6J, brain, read-out: Drug uptake; for Drug uptake: in vivo, 2 h. It counts as ADME, organism-based.
In a further data set the target is Cannabinoid receptor 2 (Homo sapiens, UniProt P34972). The data set is described as follows: Inverse agonist activity at human CB2 receptor transfected in HEK293 cells assessed as increase of forskolin-induced cAMP production incubated for 30 mins followed by d2 labeled cAMP addition measured after 60 mins by HTRF assay. Format: functional, cell-based. Background: cAMP levels reflect the balance of adenylyl cyclase and phosphodiesterase activity.
Sequence of Cannabinoid receptor 2 (P34972 whole entry): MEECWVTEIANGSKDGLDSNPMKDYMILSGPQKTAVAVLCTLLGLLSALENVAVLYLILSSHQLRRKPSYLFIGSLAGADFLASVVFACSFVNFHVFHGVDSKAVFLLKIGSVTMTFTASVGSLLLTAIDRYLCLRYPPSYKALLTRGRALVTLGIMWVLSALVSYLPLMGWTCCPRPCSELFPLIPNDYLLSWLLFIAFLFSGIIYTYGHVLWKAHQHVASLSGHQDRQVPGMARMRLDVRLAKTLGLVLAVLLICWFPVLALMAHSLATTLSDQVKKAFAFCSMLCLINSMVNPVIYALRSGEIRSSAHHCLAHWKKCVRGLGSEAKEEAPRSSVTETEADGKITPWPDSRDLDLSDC

A further data set deals with Cannabinoid receptor 1 (Homo sapiens, UniProt P21554). Briefly: Inverse agonist activity at human CB1 receptor transfected in HEK293 cells assessed as increase of forskolin-induced cAMP production incubated for 30 mins followed by d2 labeled cAMP addition measured after 60 mins by HTRF assay. It counts as functional, cell-based.
Sequence of Cannabinoid receptor 1 (P21554 whole entry): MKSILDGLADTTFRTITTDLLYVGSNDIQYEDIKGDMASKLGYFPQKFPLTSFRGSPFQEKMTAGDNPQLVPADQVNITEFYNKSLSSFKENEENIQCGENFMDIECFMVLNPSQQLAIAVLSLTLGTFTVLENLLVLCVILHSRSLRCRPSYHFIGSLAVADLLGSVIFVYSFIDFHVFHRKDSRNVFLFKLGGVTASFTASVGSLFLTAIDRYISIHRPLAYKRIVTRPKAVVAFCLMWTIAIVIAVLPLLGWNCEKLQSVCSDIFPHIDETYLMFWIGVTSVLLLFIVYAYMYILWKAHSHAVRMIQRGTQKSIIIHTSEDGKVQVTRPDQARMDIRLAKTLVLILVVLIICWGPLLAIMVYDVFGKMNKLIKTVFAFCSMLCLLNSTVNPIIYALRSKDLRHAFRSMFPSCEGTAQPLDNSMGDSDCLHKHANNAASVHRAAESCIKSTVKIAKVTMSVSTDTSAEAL
Data set [2] in a line: Plasma concentration in C57BL/6J mouse at 20 mg/kg, po measured at 2 hrs. Format: ADME, organism-based.
Data set [3] can be described thus: Ratio of drug level in brain to plasma in C57BL/6J mouse at 20 mg/kg, po measured at 4 hrs. Format: ADME, organism-based. As to conditions: read-out: BPR.
Data set [4] is described as follows: Plasma concentration in C57BL/6J mouse at 20 mg/kg, po measured at 4 hrs. Format: ADME, organism-based.
A short description of data set [5]: Drug uptake in C57BL/6J mouse brain at 20 mg/kg, po measured at 4 hrs. Format: ADME, organism-based. As to conditions: for Drug uptake: in vivo, 4 h.
Data set [6] can be described thus: Drug uptake in C57BL/6J mouse brain at 30 mg/kg, po measured at 4 hrs. Format: ADME, organism-based. As to conditions: read-out: Drug uptake.
The nature of data set [7]: Plasma concentration in C57BL/6J mouse at 30 mg/kg, po measured at 4 hrs. It counts as ADME, organism-based.
A short description of data set [8]: Ratio of drug level in brain to plasma in C57BL/6J mouse at 20 mg/kg, po measured at 2 hrs. Format: ADME, organism-based. As to conditions: read-out: BPR.
The nature of data set [9]: Ratio of drug level in brain in C57BL/6J mouse at 20 mg/kg, po measured at 4 hrs to drug level in plasma in C57BL/6J mouse at 20 mg/kg, po measured at 2 hrs. It counts as ADME, organism-based. As to conditions: read-out: BPR.

pEC50: −log10 of the molar value.

For `COc1ccc(/C=C2\CN(C(=O)Cn3ccnc3)Cc3c(C(=O)N[C@H](C)c4ccccc4)nn(-c4ccc(Cl)cc4Cl)c32)cc1`, the figures for the concentration at 2 h in [1] and in [2] were below 5 ng/mL and 580 nM, respectively. The values for the pEC50 at Cannabinoid receptor 2 and at Cannabinoid receptor 1 were 6.43 and 8.30, respectively.

As to `COc1ccc(/C=C2\CN(C(=O)CS(N)(=O)=O)Cc3c(C(=O)N[C@H](C)c4ccccn4)nn(-c4ccc(Cl)cc4Cl)c32)cc1`, the Kp at 4 h in [3] amounted to 0.04. In addition, the concentration at 4 h in data set [4] worked out at 2090 nM. For the same molecule, the pEC50 at Cannabinoid receptor 2 is 5.84; on Cannabinoid receptor 1 it was 8.10. This molecule had a Drug uptake in [5] of 0.08 nmol/g.

With `COc1ccc(/C=C2\CN(C(=O)CN)Cc3c(C(=O)N[C@H](C)c4ccccc4)nn(-c4ccc(Cl)cc4Cl)c32)cc1`, in data set [3], the Kp at 4 h worked out at 0.04. This molecule also showed a concentration at 4 h in data set [4] of 1530 nM. The negative-log EC50 (pEC50) on Cannabinoid receptor 2 was below 5.00; on Cannabinoid receptor 1, 7.62. The molecule also came in with a Drug uptake in data set [5] of 0.07 nmol/g.

For the molecule `C[C@@H](NC(=O)c1nn(-c2ccc(Cl)cc2Cl)c2c1CN(C(=O)CC(N)=O)C/C2=C\c1ccc(F)cc1)c1ccccn1`, the pEC50 at Cannabinoid receptor 2 was below 5.00; on Cannabinoid receptor 1 it was 8.05. For the same molecule, the figures for the concentration at 4 h in [6] and in data set [7] were below 5 ng/mL and 2290 nM, respectively.

Regarding `C[C@@H](NC(=O)c1nn(-c2ccc(Cl)cc2)c2c1CN(C(=O)CNS(C)(=O)=O)C/C2=C\c1ccc(F)cc1)c1ccccn1`, in data set [3], the Kp at 4 h was determined as 0.05. The molecule also gave a concentration at 4 h in data set [4] of 1720 nM. Moreover, the figures for the pEC50 on Cannabinoid receptor 2 and at Cannabinoid receptor 1 were below 5.00 and 7.52, respectively. Further, the Drug uptake in data set [5] was 0.09 nmol/g.

With `COc1ccc(/C=C2\CN(C(=O)c3cc[nH]n3)Cc3c(C(=O)N[C@H](C)c4ccccc4)nn(-c4ccc(Cl)cc4Cl)c32)cc1`, the concentration at 2 h was below 5 ng/mL in [1] and 1720 nM in [2]. Also, the negative logarithm of the EC50 (pEC50) is 5.33 at Cannabinoid receptor 2 and 7.49 on Cannabinoid receptor 1.

Regarding `C[C@@H](NC(=O)c1nn(-c2ccc(Cl)c(Cl)c2)c2c1CN(C(=O)Cn1cncn1)C/C2=C\c1ccc(Cl)cc1)c1ccccn1`, in [3], the Kp at 4 h was 0.08. Moreover, the concentration at 4 h in data set [4] was determined as 4600 nM. In addition, the negative-log EC50 (pEC50) on Cannabinoid receptor 2 was 5.11; at Cannabinoid receptor 1 it was 8.22. The molecule also displayed a Drug uptake in [5] of 0.35 nmol/g.

As for `C[C@@H](NC(=O)c1nn(-c2ccc(Cl)cc2)c2c1CN(C(=O)c1nc[nH]n1)C/C2=C\c1ccc(Cl)cc1)c1ccccc1`, in [1], the Drug uptake is recorded as 0.47 nmol/g. For the same molecule, the pEC50 at Cannabinoid receptor 2 was below 5.00; at Cannabinoid receptor 1 it was 7.77. For the same molecule, the Kp at 2 h in data set [8] came to 0.05. In [2], this molecule came in with a concentration at 2 h of 9780 nM.

For `C[C@@H](NC(=O)c1nn(-c2ccc(Cl)cc2Cl)c2c1CN(C(=O)Cn1cnnn1)C/C2=C\c1ccc(F)cc1)c1ccccc1`, the Kp in data set [9] was 0.05. Besides, the figures for the negative logarithm of the EC50 (pEC50) at Cannabinoid receptor 2 and at Cannabinoid receptor 1 were 5.49 and 8.10, respectively. The molecule also came in with a Drug uptake in data set [5] of 0.43 nmol/g. In [2], this molecule registered a concentration at 2 h of 9190 nM.

On to `C[C@@H](NC(=O)c1nn(-c2ccc(Cl)cc2Cl)c2c1CN(C(=O)[C@@H](O)CO)C/C2=C\c1ccc(Cl)cc1)c1ccccc1`, for which, in data set [3], the Kp at 4 h worked out at 0.06. The molecule further registered a concentration at 4 h in data set [4] of 2770 nM. Further, the pEC50 on Cannabinoid receptor 2 was 5.54; at Cannabinoid receptor 1, 7.74. The Drug uptake in data set [5] was 0.17 nmol/g.

`COc1ccc(/C=C2\CN(C(=O)CCS(N)(=O)=O)Cc3c(C(=O)N[C@H](C)c4ccccn4)nn(-c4ccc(Cl)cc4Cl)c32)cc1`: the Kp at 4 h in data set [3] amounted to 0.04. Besides, the concentration at 4 h in data set [4] was 1360 nM. The pEC50 on Cannabinoid receptor 2 was 6.19; on Cannabinoid receptor 1, 8.22. For the same molecule, in data set [5], the Drug uptake was 0.05 nmol/g.

In the case of `C[C@@H](NC(=O)c1nn(-c2ccc(Cl)cc2)c2c1CN(C(=O)c1nc[nH]n1)C/C2=C\c1ccc(Cl)cc1)c1ccccn1`, in data set [1], the Drug uptake turned out to be 0.1 nmol/g. The figures for the negative logarithm of the EC50 (pEC50) on Cannabinoid receptor 2 and at Cannabinoid receptor 1 were below 5.00 and 7.55, respectively. Further, the Kp at 2 h in [8] turned out to be 0.04. The molecule also displayed a concentration at 2 h in data set [2] of 2380 nM.

In the case of `COc1ccc(/C=C2\CN(C(=O)c3nc[nH]n3)Cc3c(C(=O)N[C@H](C)c4ccccc4)nn(-c4ccc(Cl)cc4Cl)c32)cc1`, the Drug uptake in data set [1] was 0.05 nmol/g. Moreover, the negative logarithm of the EC50 (pEC50) is 5.75 at Cannabinoid receptor 2 and 7.82 on Cannabinoid receptor 1. Further, the Kp at 2 h in [8] amounted to 0.03. In data set [2], the concentration at 2 h was 1480 nM.

In the case of `C[C@@H](NC(=O)c1nn(-c2ccc(Cl)cc2Cl)c2c1CN(C(=O)CCC(N)=O)C/C2=C\c1ccc(F)cc1)c1ccccn1`, the Kp at 4 h in data set [3] was determined as 0.03. For the same molecule, in data set [4], the concentration at 4 h was found to be 4250 nM. Further, the values for the pEC50 on Cannabinoid receptor 2 and at Cannabinoid receptor 1 were below 5.00 and 7.70, respectively. The molecule also returned a Drug uptake in data set [5] of 0.12 nmol/g.

In the case of `COc1ccc(/C=C2\CN(C(=O)Cn3cnnn3)Cc3c(C(=O)N[C@H](C)c4ccccc4)nn(-c4ccc(Cl)cc4Cl)c32)cc1`, in [1], the Drug uptake is recorded as 0.07 nmol/g. In addition, the values for the pEC50 on Cannabinoid receptor 2 and on Cannabinoid receptor 1 were 5.95 and 8.22, respectively. Further, in [8], the Kp at 2 h amounted to 0.02. Besides, the concentration at 2 h in [2] came to 2960 nM.

With `C[C@@H](NC(=O)c1nn(-c2ccc(Cl)cc2Cl)c2c1CN(C(=O)Cn1cnnn1)C/C2=C\c1ccc(F)cc1)c1ccccn1`, in data set [3], the Kp at 4 h was determined as 0.03. Moreover, the concentration at 4 h in data set [4] was found to be 2280 nM. Moreover, the negative logarithm of the EC50 (pEC50) is 5.06 at Cannabinoid receptor 2 and 8.22 on Cannabinoid receptor 1. For the same molecule, the Drug uptake in data set [5] worked out at 0.07 nmol/g.

For the molecule `COc1ccc(/C=C2\CN(C(=O)Cn3ccnn3)Cc3c(C(=O)N[C@H](C)c4ccccc4)nn(-c4ccc(Cl)cc4Cl)c32)cc1`, the figures for the concentration at 2 h in data set [1] and in data set [2] were below 5 ng/mL and 30 nM, respectively. For the same molecule, the pEC50 was 5.90 on Cannabinoid receptor 2 and 8.40 at Cannabinoid receptor 1.

Take `COc1ccc(/C=C2\CN(C(=O)CC(=O)O)Cc3c(C(=O)N[C@H](C)c4ccccn4)nn(-c4ccc(Cl)cc4Cl)c32)cc1`: the concentration at 4 h in [4] was 90 nM; in [5] (C57BL/6J, brain, read-out: Drug uptake), below 5 ng/mL. Also, the negative logarithm of the EC50 (pEC50) at Cannabinoid receptor 2 is 5.71; on Cannabinoid receptor 1, 7.96.

Regarding `C[C@@H](NC(=O)c1nn(-c2ccc(Cl)cc2Cl)c2c1CN(C(=O)c1nc[nH]n1)C/C2=C\c1ccc(F)cc1)c1ccccc1`, the Drug uptake in data set [1] is listed as 0.25 nmol/g. Besides, the results for the pEC50 at Cannabinoid receptor 2 and at Cannabinoid receptor 1 were 5.88 and 7.82, respectively. In addition, the Kp at 2 h in data set [8] was 0.06. The molecule further returned a concentration at 2 h in data set [2] of 4480 nM.

Turning to `C[C@@H](NC(=O)c1nn(-c2ccc(Cl)c(Cl)c2)c2c1CN(C(=O)Cn1cnnn1)C/C2=C\c1ccc(F)cc1)c1ccccn1`, in data set [3], the Kp at 4 h worked out at 0.05. Also, the concentration at 4 h in [4] turned out to be 2820 nM. Further, the pEC50 on Cannabinoid receptor 2 is 5.44; at Cannabinoid receptor 1, 8.15. In [5], this molecule displayed a Drug uptake of 0.15 nmol/g.

As to `C[C@@H](NC(=O)c1nn(-c2ccc(Cl)cc2Cl)c2c1CN(C(=O)CNS(C)(=O)=O)C/C2=C\c1ccc(Cl)cc1)c1ccccn1`, the Kp at 4 h in data set [3] came out at 0.05. For the same molecule, the concentration at 4 h in [4] was determined as 3320 nM. Moreover, the pEC50 on Cannabinoid receptor 2 was below 5.00; on Cannabinoid receptor 1 it was 7.77. Besides, the Drug uptake in [5] is 0.17 nmol/g.

Regarding `C[C@@H](NC(=O)c1nn(-c2ccc(Cl)cc2)c2c1CN(C(=O)c1nc[nH]n1)C/C2=C\c1ccc(F)cc1)c1ccccc1`, the Drug uptake in data set [1] was 0.09 nmol/g. For the same molecule, the negative-log EC50 (pEC50) at Cannabinoid receptor 2 was below 5.00; at Cannabinoid receptor 1, 7.92. Further, in data set [8], the Kp at 2 h was 0.07. Besides, the concentration at 2 h in data set [2] stood at 1320 nM.

For the molecule `C[C@@H](NC(=O)c1nn(-c2ccc(Cl)cc2Cl)c2c1CN(C(=O)[C@@H](O)CO)C/C2=C\c1ccc(Cl)cc1)c1ccccn1`, the Kp at 4 h in data set [3] came out at 0.08. Besides, in [4], the concentration at 4 h was determined as 2410 nM. Besides, the pEC50 at Cannabinoid receptor 2 is 5.26; on Cannabinoid receptor 1 it was 7.66. Besides, the Drug uptake in [5] was found to be 0.18 nmol/g.
